Data reported in US8865229B2, “Marrubiin and composition for reducing snoring, package and method” (Puranox Medical B.V., priority 2005, dated 2014).

Test system: snoring of a treated person
Assay: anti-snoring effect when applied in the pharynx via the mouth
Format: in vivo
Details: active component; test details not given
Text: The invention provides for this purpose a composition for reducing snoring, comprising at least an active quantity of at least one active component with astringent properties and a physiologically acceptable excipient. Such a composition is preferably applied in the pharynx. […] The composition according to the invention can be applied usefully not only in the domestic domain but also in professional situations where a plurality of people must necessarily sleep in the same space, such as in a dormitory, a hospital or military barracks. […] All formulations are based on water: the shown percentages by weight are thus supplemented to 100% with water. Composition A is a liquid composition which can be used for applying with a spray or as droplets. Composition B is a gel formulation. Composition C is a foam.

For `C[C@@H]1C[C@H]2OC(=O)[C@@]3(C)CCC[C@@](C)([C@@H]23)[C@@]1(O)CCc1ccoc1` [Marrubiin, 6-(2-furan-3-yl-ethyl)-6-hydroxy-2a,5a,7-trimethyldekahydronafto[1,8-bc]furan-2-on], the “anti-snoring effect / effects on the level of snoring of a treated person” value was “particularly good anti-snoring effect”.
